Drawing on ChEMBL document CHEMBL1132209, “Design, synthesis, and activity of 2,6-diphenoxypyridine-derived factor Xa inhibitors” (J Med Chem, 1999), this text covers Ki for 31 compounds.

A word on the Ki: it is the dissociation constant of the complex between target and ligand, obtained from inhibition or displacement. A higher Ki goes with lower affinity.

Assay [1] concerns the target T1, Serine protease 1 (Bos taurus, UniProt P00760).
T1 sequence (P00760 whole entry): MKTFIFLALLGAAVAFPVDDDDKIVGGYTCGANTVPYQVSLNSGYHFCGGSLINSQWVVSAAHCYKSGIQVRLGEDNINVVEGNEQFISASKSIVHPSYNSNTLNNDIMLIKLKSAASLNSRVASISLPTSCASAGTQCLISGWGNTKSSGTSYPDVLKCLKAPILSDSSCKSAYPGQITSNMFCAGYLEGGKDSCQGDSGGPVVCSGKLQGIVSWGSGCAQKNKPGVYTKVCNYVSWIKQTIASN
In words: Compound was tested for inhibition activity against bovine trypsin.

Assay [2] concerns the target Coagulation factor X (Homo sapiens, UniProt P00742). Put plainly: Compound was tested for inhibition activity against Coagulation factor X.
Assay [3] deals with Prothrombin (Homo sapiens, UniProt P00734). Put plainly: Compound was tested for inhibition activity against human thrombin (FIIa).

Some results are limits rather than exact numbers.

Sequence of Coagulation factor X (P00742 41-179 limits assumed): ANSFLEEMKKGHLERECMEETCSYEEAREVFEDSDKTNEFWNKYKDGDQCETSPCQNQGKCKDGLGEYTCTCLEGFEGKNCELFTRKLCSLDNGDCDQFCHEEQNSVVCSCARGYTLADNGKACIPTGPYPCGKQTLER
Sequence of Coagulation factor X (P00742 235-488 limits assumed): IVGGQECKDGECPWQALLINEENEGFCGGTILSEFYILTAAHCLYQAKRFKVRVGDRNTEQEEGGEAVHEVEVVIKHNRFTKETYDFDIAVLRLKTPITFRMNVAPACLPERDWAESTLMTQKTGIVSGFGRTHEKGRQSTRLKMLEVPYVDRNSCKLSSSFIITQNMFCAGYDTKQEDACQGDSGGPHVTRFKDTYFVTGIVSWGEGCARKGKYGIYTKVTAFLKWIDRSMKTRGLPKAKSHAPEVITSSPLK

As for `N=C(N)c1cccc(Oc2cc(C(N)=O)cc(Oc3cccc(C(=N)N)c3)n2)c1`, the results for the Ki in assay [1], in assay [2] and in assay [3] were 0.78 µM, 0.042 µM and 6 µM, respectively.

Take `N=C(N)c1cccc(Oc2ccc(C(F)(F)F)c(Oc3cccc(C(=N)N)c3)n2)c1`: the inhibitory constant (Ki) in assay [1] is 0.78 µM; in assay [2], 0.11 µM; in assay [3] it was greater than 5 µM.

On to `CNC(=O)c1ccc(Oc2cccc(C(=N)N)c2)nc1Oc1cccc(C(=N)N)c1`, for which the Ki was 1.4 µM in assay [1], 0.23 µM in assay [2] and greater than 5 µM in assay [3].

Regarding `N=C(N)c1cccc(Oc2ccc(NC(=O)c3ccccc3)c(Oc3cccc(C(=N)N)c3)n2)c1`, the Ki turned out to be 0.26 µM in assay [1], 0.12 µM in assay [2] and 3.4 µM in assay [3].

As to `N=C(N)c1cccc(Oc2ccc(N)c(Oc3cccc(C(=N)N)c3)n2)c1`, the Ki is 1.3 µM in assay [1], 0.053 µM in assay [2] and greater than 5 µM in assay [3].

For `CCOC(=O)c1ccc(Oc2cccc(C(=N)N)c2)nc1Oc1cccc(C(=N)N)c1`, the Ki was 0.92 µM in assay [1], 0.19 µM in assay [2] and greater than 5 µM in assay [3].

For `N=C(N)c1cccc(Oc2ccc(NC(=O)Nc3ccccc3)c(Oc3cccc(C(=N)N)c3)n2)c1`, the figures for the Ki in assay [1], in assay [2] and in assay [3] were 0.1 µM, 0.062 µM and 3.4 µM, respectively.

As for `CNC(=O)c1cc(Oc2cccc(C(=N)N)c2)nc(Oc2cccc(C(=N)N)c2)c1`, the Ki worked out at 0.75 µM in assay [1], 0.06 µM in assay [2] and 4.2 µM in assay [3].

On to `N=C(N)c1cccc(Oc2ccnc(Oc3cccc(C(=N)N)c3)n2)c1`, for which the Ki in assay [1] was 0.76 µM; in assay [2], 0.12 µM; in assay [3], greater than 5 µM.

Turning to `N=C(N)c1ccc(Oc2cc(Oc3ccc(C(=N)N)cc3)c(Cl)cc2Cl)cc1`, the inhibition constant Ki in assay [1] is 1.8 µM; in assay [2], 1.1 µM; in assay [3] it was 2.5 µM.

Take `N=C(N)c1cccc(Oc2c[nH]c(=O)c(Oc3cccc(C(=N)N)c3)n2)c1`: the Ki in assay [1] is 0.76 µM; in assay [2], 0.19 µM; in assay [3], greater than 5 µM.

Take `CC(=O)Nc1ccc(Oc2cccc(C(=N)N)c2)nc1Oc1cccc(C(=N)N)c1`: the Ki in assay [1] was 1.2 µM; in assay [2], 0.052 µM; in assay [3] it was greater than 5 µM.

`N=C(N)c1cccc(Oc2cc(Oc3ccccc3C(=N)N)ccc2[N+](=O)[O-])c1`: in assay [2], the Ki worked out at 0.3 µM.

In assay [2], `N=C(N)c1cccc(Oc2cc(Oc3ccccc3C(=N)N)ccc2N)c1` returned a Ki of 1.1 µM.

On to `Cc1c(F)c(N(C)c2cccc(C(=N)N)c2)nc(N(C)c2cccc(C(=N)N)c2)c1F`, for which the Ki in assay [1] was 0.36 µM; in assay [2] it was 0.098 µM; in assay [3], 0.36 µM.

For the compound `Cc1c(F)c(Nc2cccc(C(=N)N)c2)nc(Oc2cccc(C(=N)N)c2)c1F`, the results for the Ki in assay [1], in assay [2] and in assay [3] were 3.1 µM, 0.66 µM and greater than 5 µM, respectively.

For the compound `CCOC(=O)c1cc(Oc2cccc(C(=N)N)c2)nc(Oc2cccc(C(=N)N)c2)c1`, the Ki in assay [1] worked out at 0.8 µM; in assay [2], 0.034 µM; in assay [3] it was 11 µM.

For `N=C(N)c1cccc(Oc2ccc(NC(=O)NCC(N)=O)c(Oc3cccc(C(=N)N)c3)n2)c1`, the Ki is 0.28 µM in assay [1], 0.11 µM in assay [2] and greater than 5 µM in assay [3].

On to `N=C(N)c1ccccc1Oc1cccc(Oc2ccccc2C(=N)N)n1`, for which, in assay [2], the Ki is greater than 5 µM.

On to `N=C(N)c1ccc(Oc2cccc(Oc3ccc(C(=N)N)cc3)c2)cc1`, for which the Ki in assay [1] came out at 1 µM; in assay [2], 0.97 µM; in assay [3] it was 4.9 µM.

For the compound `Cc1c(F)c(Oc2cccc(C(=N)N)c2)nc(N(C)c2cccc(C(=N)N)c2)c1F`, the Ki in assay [1] worked out at 0.69 µM; in assay [2], 0.012 µM; in assay [3], 1.9 µM.

As for `N=C(N)c1cccc(Oc2ccc(C(N)=O)c(Oc3cccc(C(=N)N)c3)n2)c1`, the Ki in assay [1] is 1.2 µM; in assay [2] it was 0.6 µM; in assay [3], greater than 5 µM.

As to `COc1c(F)c(Oc2cccc(C(=N)N)c2)nc(Oc2cccc(C(=N)N)c2)c1F`, the Ki in assay [1] is 1.1 µM; in assay [2] it was 0.023 µM; in assay [3], greater than 5 µM.

As for `N=C(N)c1cccc(Oc2ccc(C(=O)NCC(N)=O)c(Oc3cccc(C(=N)N)c3)n2)c1`, the Ki is 2 µM in assay [1], 0.69 µM in assay [2] and greater than 5 µM in assay [3].

Turning to `N=C(N)c1ccc(Oc2cccc(Oc3ccccc3C(=N)N)n2)cc1`, the Ki in assay [1] worked out at 1.9 µM; in assay [2], 0.13 µM; in assay [3], 1.2 µM.

As for `N=C(N)c1cccc(Oc2cncc(Oc3cccc(C(=N)N)c3)n2)c1`, the Ki is 0.97 µM in assay [1], 0.051 µM in assay [2] and greater than 5 µM in assay [3].

For the compound `N=C(N)c1cccc(Oc2ccc(C(=O)O)c(Oc3cccc(C(=N)N)c3)n2)c1`, the Ki in assay [1] is 2.2 µM; in assay [2], 0.095 µM; in assay [3], greater than 100 µM.

With `CN(C)C(=O)c1ccc(Oc2cccc(C(=N)N)c2)nc1Oc1cccc(C(=N)N)c1`, the inhibitory constant (Ki) is 0.78 µM in assay [1], 0.032 µM in assay [2] and greater than 5 µM in assay [3].

As for `N=C(N)c1ccc(/C=C2\CCCC/C(=C\c3ccc(C(=N)N)cc3)C2=O)cc1`, the Ki in assay [1] came out at 0.033 µM; in assay [2] it was 0.00066 µM; in assay [3], 0.53 µM.

`CNC(=O)Nc1ccc(Oc2cccc(C(=N)N)c2)nc1Oc1cccc(C(=N)N)c1`: the Ki is 0.84 µM in assay [1], 0.059 µM in assay [2] and greater than 5 µM in assay [3].

Turning to `CS(=O)(=O)Nc1ccc(Oc2cccc(C(=N)N)c2)nc1Oc1cccc(C(=N)N)c1`, the Ki in assay [1] is 1.9 µM; in assay [2], 0.13 µM; in assay [3] it was greater than 5 µM.
